Laboratory results taken from publication PMC7549094 (Journal of Medicinal Chemistry, 2020).
pEC50, pIC50: −log10 of the molar value. In brackets after ≈: the same amount, converted by molar mass. Read-outs that look alike come from different tables or passages of the source.

How the values were obtained:
[1] = test system: intramacrophage L. donovani amastigotes; test: L. donovani amastigote proliferation within primary mouse macrophages; format: cell-based; conditions: Leishmania donovani, Macrophage
[2] = high-throughput solubility pH 6.8; format: physicochemical; conditions: high-throughput assay format, read-out: HT sol. pH 6.8
[3] = microsomal extraction ratio, 1 h incubation in microsomes
[4] = microsomal extraction ratio, 1 h incubation in microsomes; remark: listed apart in the source
[5] = microsomal extraction ratio, 1 h incubation in microsomes; remark: listed apart in the source
[6] = target: wild-type (PSMB4^WT) L. tarentolae proteasome (Leishmania tarentolae, UniProt A0A640KTY7+A0A640KW57); test: chymotrypsin-like activity of purified wild-type L. tarentolae proteasome; format: biochemical; conditions: n = 3 technical replicates
[7] = pharmacokinetics in cynomolgus monkey; format: in vivo; conditions: monkey plasma; oral administration of 1; dose-normalized AUC
Protocol: In Vivo Intravenous PK Study in Non-human Primates. The IV PK study in non-human primates was carried out at Covance research facility in Greenfield, Indiana. The research facility is accredited by AAALAC (Association for Assessment and Accreditation of Laboratory Animal Care). The male Cynomolgus monkeys were approximately 4.5 years of age and weighed 4.2 to 5.0 kg. 1 was administered […]
75% polyethylene glycol (PEG300) as described in the earlier section. Doses were administered once by intravenous injection via the saphenous vein at a dose of 0.3 mg/kg with a dosing volume of 0.1 ml/kg.
Clinical observations and food consumption determinations were performed on all animals. Blood samples for PK analysis were collected from all animals via the femoral vein approximately 0.083, 0.25, […]
In Vivo Oral PK Study in Non-human Primates. The PO PK study in non-human primates was conducted at a Novartis facility using Non-naïve male Cynomolgus monkeys weighing 3.8 to 4.0 kg. The monkeys were fasted overnight and fed 2 hours post-dose. 1 was formulated in a suspension of 0.5% […]
gavaged with 5 mL/kg of the suspension for a total dose of 10 mg/kg. The gavage tubing was flushed with 5 mL of water to ensure the gavage tubing was cleared of the formulation. Blood samples for PK analysis were collected from all animals via the saphenous veins approximately 0.25, 0.5, 1, 2, 4, 7, 24, 48, and 72 hours post-dose.

[8] = pharmacokinetics, summary across preclinical species; format: in vivo, rat, dog, cynomolgus monkey; conditions: mouse, rat, and monkey plasma; single oral dose of 1
[9] = metabolite profile in rat hepatocytes; format: in vitro ADME; conditions: 10 μM of 1 for 4 h, UV 250 nm, normalized to largest peak
[10] = metabolite profile in dog hepatocytes; format: in vitro ADME; conditions: 10 μM of 1 for 4 h, UV 250 nm, normalized to largest peak
[11] = metabolite profile in monkey hepatocytes; format: in vitro ADME; conditions: 10 μM of 1 for 4 h, UV 250 nm, normalized to largest peak
[12] = metabolite profile in human hepatocytes; format: in vitro ADME; conditions: 10 μM of 1 for 4 h, UV 250 nm, normalized to largest peak
[13] = mouse plasma; oral administration of 1; dose-normalized AUC
Protocol: In Vivo PK Studies in Mice.
(§1) The solution was filtered using a 0.45 m syringe filter before dosing. Two male Balb/c mice were administered 1 intravenously via the lateral tail
(§2) vein at 5 mg/kg with a dose volume of 2.0 mL/kg. 1 was also formulated in a suspension of 0.5%
(§3) methylcellulose with 0.5% Tween 80 (0.5% MC/0.5% Tw80) in water at 2.5 mg/mL. A group of mice
(§4) (n=3) were administered 1 orally via gavage at 20 mg/kg with a dose volume of 8.0 mL/kg.
(§5) The mouse blood samples were centrifuged to separate plasma and the plasma samples were frozen at -
In Vivo PK Studies in Rats.
Two male Wistar rats were administered
(§6) 1 intravenously via the lateral tail vein at 3 mg/kg with a dose volume of 1.0 mL/kg. 1 was also formulated
(§7) in a suspension of 0.5% methylcellulose with 0.5% Tween 80 (0.5% MC/0.5% Tw80) in water at 2.0
(§8) mg/mL. The second group of rats (n=3) were administered 1 orally via gavage at 10 mg/kg in suspension
(§9) with a dose volume of 5.0 mL/kg. Six blood samples of 100 μL each were collected serially from each
(§10) animal via the saphenous vein up to 24 hours after dosing. The rat blood samples were centrifuged to
(§11) separate plasma and the plasma samples were frozen at -20°C until analysis.
In Vivo PK Studies in Dogs.
(§12) The solution was filtered using a 0.45 m syringe filter before dosing. Three male Beagle dogs were administered 1 intravenously via saphenous
(§13) vein at 0.3 mg/kg with a dose volume of 0.1 mL/kg. 1 was also formulated in a suspension of 0.5%
(§14) methylcellulose with 0.5% Tween 80 (0.5%MC/0.5% Tween 80) in water at 1.0 mg/mL. The second
(§15) group of male dogs (n=2) were administered 1- orally via gavage at 1.0 mg/kg with a dose volume of 1.0
(§16) mL/kg. Seven blood samples of 250 µL each were collected serially from each animal via the jugular vein
(§17) The dog blood samples were centrifuged to separate plasma and the plasma
(§18) samples were frozen at -20 °C until analysis.

[14] = rat plasma; oral administration of 1; dose-normalized AUC
[15] = dog plasma; oral administration of 1; dose-normalized AUC
Protocol: In Vivo PK Studies in Mice.
as §1, §2, §3, §4, §5
In Vivo PK Studies in Rats.
Two male Wistar rats were administered
as §6, §7, §8, §9, §10, §11
In Vivo PK Studies in Dogs.
as §12, §13, §14, §15, §16, §17, §18

[16] = target: T1, purified L. donovani proteasome (Leishmania donovani, UniProt A0A3Q8IIY4+A0A3S7XA80); test: chymotrypsin-like activity of purified L. donovani proteasome; format: biochemical; conditions: half-maximum inhibition of chymotrypsin-like activity of purified L. donovani proteasome; mean, n = 4 technical replicates
T1 sequence (A0A3Q8IIY4 100-302): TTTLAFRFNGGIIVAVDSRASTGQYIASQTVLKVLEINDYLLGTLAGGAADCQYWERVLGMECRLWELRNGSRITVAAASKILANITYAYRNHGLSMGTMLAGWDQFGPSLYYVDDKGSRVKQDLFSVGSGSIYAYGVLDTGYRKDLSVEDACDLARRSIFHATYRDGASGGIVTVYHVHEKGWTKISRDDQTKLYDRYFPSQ
T1 sequence (A0A3S7XA80 1-206): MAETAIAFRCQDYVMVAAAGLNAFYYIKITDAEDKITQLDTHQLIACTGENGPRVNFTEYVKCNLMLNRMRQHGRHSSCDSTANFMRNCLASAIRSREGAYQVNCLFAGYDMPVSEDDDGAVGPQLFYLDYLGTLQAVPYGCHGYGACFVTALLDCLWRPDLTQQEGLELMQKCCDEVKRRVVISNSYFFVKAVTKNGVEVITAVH

[17] = microsomal extraction ratio, 1 h incubation in microsomes; remark: listed apart in the source
[18] = metabolite profile in mouse hepatocytes; format: in vitro ADME; conditions: 10 μM of 1 for 4 h, UV 250 nm, normalized to largest peak

Chain of wild-type (PSMB4^WT) L. tarentolae proteasome (A0A640KW57 100-302): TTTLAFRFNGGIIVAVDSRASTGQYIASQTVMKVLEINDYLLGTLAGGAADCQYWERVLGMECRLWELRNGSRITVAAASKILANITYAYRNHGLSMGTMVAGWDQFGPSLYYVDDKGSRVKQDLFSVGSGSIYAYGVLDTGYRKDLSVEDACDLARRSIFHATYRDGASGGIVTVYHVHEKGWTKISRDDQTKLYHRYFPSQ
Chain of wild-type (PSMB4^WT) L. tarentolae proteasome (A0A640KTY7 1-206): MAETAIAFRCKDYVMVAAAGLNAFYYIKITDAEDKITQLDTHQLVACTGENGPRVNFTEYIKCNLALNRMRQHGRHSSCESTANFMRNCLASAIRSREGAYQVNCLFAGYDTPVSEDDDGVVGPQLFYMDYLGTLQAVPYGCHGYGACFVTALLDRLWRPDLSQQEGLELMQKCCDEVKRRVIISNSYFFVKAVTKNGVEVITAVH

COc1cccnc1-c1cnc2nc(-c3cc(NC(=O)c4oc(C)nc4C)ccc3F)nn2c1 [compound 5]
pEC50 [1]: 7.15 | solubility kinetic [2]: 7 µM (≈ 3.22 µg/mL) | ER mouse [3]: 0.4 | ER human [4]: < 0.21 | ER dog [5]: 0.56

CC(C)C[C@H](NC(=O)[C@H](Cc1ccccc1)NC(=O)c1cnccn1)B(O)O [Bortezomib, bortezomib, reference compound]
pIC50 [6]: 8.40

Cc1cccnc1-c1cnc2nc(-c3cc(NC(=O)c4oc(CO)nc4C)ccc3F)nn2c1 [compound 8]
metabolite exposure relative to 1 [7]: 5.1% | metabolite exposure relative to 1 [8]: 0.2–5% | abundance rat [9]: + (+ ≤25%) | abundance dog [10]: ++ (++ ≤ 75%>25%) | abundance monkey [11]: + (+ ≤25%) | abundance human [12]: + (+ ≤25%) | metabolite exposure relative to 1 [13]: 0.2% | metabolite exposure relative to 1 [14]: 1.5% | metabolite exposure relative to 1 [15]: 120%

Cc1nc(C)c(C(=O)Nc2ccc(F)c(-c3nc4ncc(-c5ncccc5C(F)F)cn4n3)c2)o1 [compound 3]
pIC50 [16]: 7.22 | pEC50 [1]: 6.96 | solubility kinetic [2]: 21 µM (≈ 10.1 µg/mL) | ER mouse [3]: 0.51 | ER rat [17]: < 0.18 | ER human [4]: 0.55 | ER dog [5]: 0.57

Cc1nc(C)c(C(=O)Nc2ccc(F)c(-c3nc4ncc(-c5ncccc5CO)cn4n3)c2)o1 [compound 6]
pIC50 [16]: 7.15 | pEC50 [1]: 6.30 | metabolite exposure relative to 1 [7]: 1.7% | metabolite exposure relative to 1 [8]: less than 10% | abundance mouse [18]: + (+ ≤25%) | abundance rat [9]: + (+ ≤25%) | abundance dog [10]: + (+ ≤25%) | abundance monkey [11]: + (+ ≤25%) | abundance human [12]: + (+ ≤25%) | metabolite exposure relative to 1 [13]: 1.5% | metabolite exposure relative to 1 [14]: 1.5%

Cc1nc(C)c(C(=O)Nc2ccc(F)c(-c3nc4ncc(-c5ccccn5)cn4n3)c2)o1 [compound 2]
ER rat [17]: < 0.27 | ER human [4]: 0.3 | ER dog [5]: 0.46

Cc1nc(C)c(C(=O)Nc2ccc(F)c(-c3nc4ncc(-c5ncccc5Cl)cn4n3)c2)o1 [compound 4]
pIC50 [16]: 7.00 | pEC50 [1]: 7.30 | solubility kinetic [2]: 7 µM (≈ 3.25 µg/mL)

Cc1nc(CO)c(C(=O)Nc2ccc(F)c(-c3nc4ncc(-c5ncccc5C)cn4n3)c2)o1 [compound 7]
metabolite exposure relative to 1 [7]: 11% | metabolite exposure relative to 1 [8]: 5–17% | abundance mouse [18]: + (+ ≤25%) | abundance rat [9]: + (+ ≤25%) | abundance dog [10]: + (+ ≤25%) | abundance monkey [11]: + (+ ≤25%) | abundance human [12]: + (+ ≤25%) | metabolite exposure relative to 1 [13]: 4.5% | metabolite exposure relative to 1 [14]: 17%
